Structures can show the parent of a compound that is named as a salt. Where two headings read alike, the source gives them in different places.
Columns and labels:
mu receptor [1] = biological target: T1, mu receptor (Rattus norvegicus, UniProt P33535); test: Opioid receptor binding displacement assay, mu site (rat whole brain minus cerebellum, 3H ligand); parameters: species or system Male Sprague Dawley rats
T1 construct: rat whole brain minus cerebellum for mu and delta sites; from tissue; host or cells: rat whole brain minus cerebellum, frozen pellet fraction
Method: (§1) This assay was conducted by the following procedure.
(§2) Male Sprague Dawley rats for mu and delta site experiments and male Hartley guinea pigs for kappa site experiments were sacrificed via decapitation and the brains were removed. The brain tissue, rat whole brain minus cerebellum for mu and delta sites and guinea pig cortex for the kappa site, was homogenized in a Teflon and glass tissue homogenizer. A supernatant I, pellet IV, fraction was frozen in a nitrogen freezer at 1.33 g/ml concentration and stored for not longer than five weeks prior to use. Pellets were rehydrated with physiological buffer prior to use.
(§3) The reaction was initiated by the addition of the rehydrated tissue which has been preincubated at 37° C. for 20 minutes. The reaction mixture was incubated in a 37° C. water bath for 20 minutes. The reaction was terminated by rapid filtration, (Amicon vacuum manifolds), through Whatman GF/C glass filters that had been presoaked in Krebs-Hepes buffer pH 7.4. The filters were then washed 2× with 5 ml of ice cold Krebs-Hepes buffer pH 7.4. Washed filters were placed in scintillation vials and 10 ml PCS, (Amersham), was added and samples counted in a Searle D-300 beta counter. Means and standard error statistics were calculated for triplicate experimental determinations in certain cases. The procedure was slightly modified for the kappa site. The tissue was pretreated with 100 nM concentrations of mu and delta receptor site blockers. The incubation time for the reaction mixture was 45 minutes at 37° C.

mu receptor [2] = biological target: T2, mu receptor (Mus musculus, UniProt P42866); test: Mouse writhing assay, antagonism of morphine analgesia (mu); type: in vivo, CF-1 male mice; conditions: sc, read-out: Mu AD50
T2 construct: Five CF-1 male mice (Charles River, Portage, Mich.); from tissue; host or cells: whole living CF-1 male mice (in vivo)

kappa receptor [3] = biological target: T3, kappa receptor (Mus musculus, UniProt P33534); test: in vivo; parameters: species or system CF-1 male mice; conditions: sc, read-out: Kappa AD50
T3 construct: Five CF-1 male mice (Charles River, Portage, Mich.); from tissue; host or cells: whole living CF-1 male mice (in vivo)

kappa receptors = biological target: T4, kappa receptors (Rattus norvegicus, UniProt P34975); test: Rat diuresis assay, antagonism of bremazocine-induced urination; type: in vivo, male Long-Evans hooded rats; conditions: sc, rats, s.c., urinary output reduced to 50% of effect of 0.08 mg/kg bremazocine alone
T4 construct: sixty male Long-Evans hooded rats; from tissue; host or cells: whole living male Long-Evans hooded rats (in vivo)
Method: As such, the compounds of the invention were also evaluated in a rat diuresis assay conducted according to the following procedure described by Leander et al. in Drug Development Research 4:421-427 (1984) in an effort to further establish the ability of the present compounds to block kappa receptors.
According to this procedure, sixty male Long-Evans hooded rats (Charles River Breeding Laboratories, Portage, Mich.) weighing between about 300 and 500 grams each were housed either individually or in pairs in a temperature-controlled (23° C.) colony room which was illuminated between 6:00 A.M. and 6:00 P.M. Rodent chow and tap water were continuously available except during the measurement of urine output. The animals were used repeatedly, but no more frequently than twice a week.
The animals were then injected with various doses of the test compounds. To measure urine output, the animals were removed from the home cages, weighed, injected and placed in metabolism cages for 5 hr. Excreted urine was funneled into graduated cylinders. Cumulative urine volumes were determined at designated time intervals, usually at 2 and 5 hr after injection.
The compounds which are salt forms were dissolved in distilled water. If necessary, the compounds were dissolved in distilled water with the aid of either a few drops of lactic acid or hydrochloric acid and gentle warming. All injections were s.c. in a volume of 1 ml/kg of body weight. During tests for antagonism, two injections were given, one on each side of the body.
In the Table, column 1 provides the Example Number of the compound tested; column 2, the amount of compound in mg/kg necessary to reduce the urinary output to 50% of the effect produced by 0.08 mg/kg of bremazocine alone two hours after injection of bremazocine and the test compound; and column 3, the amount of compound in mg/kg necessary to reduce the urinary output to 50% of the effect produced by 0.08 mg/kg of bremazocine alone five hours after injection of bremazocine and the test compound.

[4] = tested on: meal fed obese Zucker rats; test: Food consumption assay in meal fed obese Zucker rats; type: in vivo; conditions: Rattus norvegicus, sc, 4 h, amount to decrease food consumption 20% during first four hours
Source text: The following assay was employed to evaluate the ability of the compounds of the invention to effect food and water consumption of meal fed obese Zucker rats.
According to this procedure, 3-4 month old obese Zucker rats were trained to eat food daily from 8:00 A.M. to 4:00 P.M. only, such that the body weight gain approximates that if the rats were fed ad libitum. These rats were allowed to consume water at all times. Four groups of rats with four rats in each group, two female and two male, were formed. One group served as control for the other three groups each day. Each of the other groups were given a subcutaneous dose of the compound to be evaluated. The test compound was formulated in physiological saline containing 10% dimethylsulfoxide by volume.
Animals remained drug free for 4 days before the next test. Food and water consumption of each rat were measured for the first four hours. A test on one compound was run for three consecutive days. The drug effect was expressed as the percent of the control for that test day.
In the Table, column 1 gives the Example Number of the compound evaluated; and column 2 provides the ED20 in mg/kg, wherein ED20 represents the amount of compound evaluated in mg/kg necessary to decrease food consumption 20% during the first four hours of the experiment.

kappa receptor [5] = biological target: T5, kappa receptor (Cavia porcellus, UniProt P41144); test: Opioid receptor binding displacement assay, kappa site (guinea pig cortex, 3H ligand); parameters: species or system male Hartley guinea pigs
T5 construct: guinea pig cortex for the kappa site; from tissue; host or cells: guinea pig cortex, frozen pellet fraction
Method: as §1, §2, §3

[6] = rat brain minus cerebellum, pH 7.4, 37° C., 20 minutes, read-out: Ki Mu
[7] = 2 h, two hours after injection, read-out: AD50 Two Hours
[8] = 5 h, five hours after injection, read-out: AD50 Five Hours
[9] = guinea pig cortex, pH 7.4, 37° C., 45 minutes, mu and delta sites blocked (100 nM), read-out: Ki Kappa

T4 sequence (P34975 whole entry): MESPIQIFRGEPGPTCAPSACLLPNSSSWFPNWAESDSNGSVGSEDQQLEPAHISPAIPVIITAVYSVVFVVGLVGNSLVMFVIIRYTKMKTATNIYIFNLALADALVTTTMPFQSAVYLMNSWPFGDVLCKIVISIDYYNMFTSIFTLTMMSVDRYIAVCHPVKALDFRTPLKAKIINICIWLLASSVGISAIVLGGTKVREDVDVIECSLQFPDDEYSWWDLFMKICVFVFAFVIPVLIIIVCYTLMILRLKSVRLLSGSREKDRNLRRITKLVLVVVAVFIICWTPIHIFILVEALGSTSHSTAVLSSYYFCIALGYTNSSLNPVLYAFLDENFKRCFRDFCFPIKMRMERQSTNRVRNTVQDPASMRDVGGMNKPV
T3 sequence (P33534 whole entry): as the sequence (P34975 whole entry) above, with E11D, A17S, P51S, V308A counted along it
T1 sequence (P33535 whole entry): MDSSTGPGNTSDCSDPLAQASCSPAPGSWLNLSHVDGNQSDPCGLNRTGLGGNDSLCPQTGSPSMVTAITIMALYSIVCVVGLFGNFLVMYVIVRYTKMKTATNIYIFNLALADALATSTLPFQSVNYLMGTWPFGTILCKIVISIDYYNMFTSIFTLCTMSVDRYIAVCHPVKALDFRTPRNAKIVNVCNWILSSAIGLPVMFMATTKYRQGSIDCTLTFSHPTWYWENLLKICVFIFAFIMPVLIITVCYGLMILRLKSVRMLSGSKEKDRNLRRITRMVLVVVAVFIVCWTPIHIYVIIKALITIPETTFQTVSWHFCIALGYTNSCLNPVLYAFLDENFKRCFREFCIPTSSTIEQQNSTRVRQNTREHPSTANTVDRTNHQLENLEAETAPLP
T2 sequence (P42866 whole entry): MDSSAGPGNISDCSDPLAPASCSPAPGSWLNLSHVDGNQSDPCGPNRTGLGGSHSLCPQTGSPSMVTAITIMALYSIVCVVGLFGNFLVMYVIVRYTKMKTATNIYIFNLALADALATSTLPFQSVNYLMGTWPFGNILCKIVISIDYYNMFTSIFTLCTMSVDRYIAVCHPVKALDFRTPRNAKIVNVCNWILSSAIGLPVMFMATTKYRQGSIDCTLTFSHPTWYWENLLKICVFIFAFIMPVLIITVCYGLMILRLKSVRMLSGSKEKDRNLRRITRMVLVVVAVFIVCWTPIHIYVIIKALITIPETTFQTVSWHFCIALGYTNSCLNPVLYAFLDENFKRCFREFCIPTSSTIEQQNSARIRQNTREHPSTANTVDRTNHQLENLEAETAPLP
T5 sequence (P41144 whole entry): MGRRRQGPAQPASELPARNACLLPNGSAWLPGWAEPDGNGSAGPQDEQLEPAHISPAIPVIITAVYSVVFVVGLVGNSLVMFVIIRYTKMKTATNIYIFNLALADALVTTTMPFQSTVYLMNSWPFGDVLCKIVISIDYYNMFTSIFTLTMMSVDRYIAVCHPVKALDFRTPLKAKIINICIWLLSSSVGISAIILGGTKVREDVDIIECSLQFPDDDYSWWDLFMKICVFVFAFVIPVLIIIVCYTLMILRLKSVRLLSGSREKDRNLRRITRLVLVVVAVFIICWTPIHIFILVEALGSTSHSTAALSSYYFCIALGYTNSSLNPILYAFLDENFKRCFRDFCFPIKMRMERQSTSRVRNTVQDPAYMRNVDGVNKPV

Structure (SMILES): C[C@H]1CN(CCC(O)c2ccccc2)CC[C@@]1(C)c1cccc(O)c1 (relative stereo) [Compound A, 4β-(3-Hydroxyphenyl)-3β,4α-dimethyl-α-phenyl-1-piperidinepropanol hydrochloride, reference compound]
- Ki (mu receptor [1]; [6]): 1 nM
- ED50 (mu receptor [2]): 0.05 mg/kg
- ED50 (kappa receptor [3]): 0.92 mg/kg
- ED50 (kappa receptors; [7]): 4.09 mg/kg
- ED50 (kappa receptors; [8]): 2.65 mg/kg
- ED20 [4]: 0.55 mg/kg
- Ki (kappa receptor [5]; [9]): 22.7 nM

Structure (SMILES): C[C@H]1CN(CC[C@H](O)C2CCCCC2)CC[C@@]1(C)c1cccc(O)c1 [Example 23, trans-(+)-1-[S-(3-Hydroxy-3-cyclohexylpropyl)]-3,4-dimethyl-4-(3-hydroxyphenyl)piperidine]
- Ki (mu receptor [1]; [6]): 0.41 ± 0.09 nM
- ED50 (mu receptor [2]): 0.01 mg/kg
- ED50 (kappa receptor [3]): 0.07 mg/kg
- ED50 (kappa receptors; [7]): 0.4 mg/kg
- ED50 (kappa receptors; [8]): 0.38 mg/kg
- ED20 [4]: 0.05 mg/kg
- Ki (kappa receptor [5]; [9]): 2.02 ± 0.46 nM

Structure (SMILES): CC(C)CCCN1CCC(C)(c2cccc(O)c2)C(C)C1 (stereo not drawn) [Example 15, trans-(±)-1-(4-Methylpentyl)-3,4-dimethyl-4-(3-hydroxyphenyl)piperidine hydrochloride]
- Ki (mu receptor [1]): 1.25 ± 0.4 nM
- ED50 (mu receptor [2]): 0.11 mg/kg
- ED50 (kappa receptor [3]): 0.09 mg/kg
- ED50 (kappa receptors; [7]): 0.27 mg/kg
- ED50 (kappa receptors; [8]): 0.39 mg/kg
- ED20 [4]: 3.65 mg/kg
- Ki (kappa receptor [5]): 9.43 ± 1.67 nM

Reference: patent US4992450A, “Piperidine opioid antagonists” (Eli Lilly and Company, priority 1989, dated 1991)
